Results taken from article PMC12007089, “Applying Isothermal Titration Calorimetry and Saturation Transfer Difference-NMR to Study the Mode of Interaction of Flavan-3-ols with α-Amylase to Understand Their Impact on Starch Hydrolysis” (Journal of Agricultural and Food Chemistry, 2025).
Like-named read-outs stand apart in the source and are kept apart here.

Key:
[1] = target: T1, porcine pancreatic α-amylase (Sus scrofa, UniProt P00690); test: Continuous α-amylase activity assay (starch hydrolysis) by ITC; format: biochemical; conditions: for IC50: calculated according to the Cheng–Prussoff equation (eq 8) for a 1 M substrate
T1 sequence (P00690 16-511): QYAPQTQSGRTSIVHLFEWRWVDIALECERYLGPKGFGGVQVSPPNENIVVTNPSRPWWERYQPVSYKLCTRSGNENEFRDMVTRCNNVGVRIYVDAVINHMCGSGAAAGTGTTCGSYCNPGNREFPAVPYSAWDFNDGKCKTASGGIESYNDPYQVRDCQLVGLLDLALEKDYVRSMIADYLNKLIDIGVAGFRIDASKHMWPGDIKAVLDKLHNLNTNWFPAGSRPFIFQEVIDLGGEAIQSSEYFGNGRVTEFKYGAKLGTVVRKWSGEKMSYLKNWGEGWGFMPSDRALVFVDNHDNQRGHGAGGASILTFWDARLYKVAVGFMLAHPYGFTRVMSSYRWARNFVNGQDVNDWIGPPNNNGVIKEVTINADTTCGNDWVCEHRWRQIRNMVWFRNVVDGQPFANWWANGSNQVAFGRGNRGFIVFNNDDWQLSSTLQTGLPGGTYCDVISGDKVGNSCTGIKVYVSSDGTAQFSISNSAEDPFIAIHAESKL
Procedure: Without rebuffering, α-amylase was diluted each day with 0.1 M phosphate buffer/0.04 M NaCl to a final dilution of 1:1000 and stored at 4 °C. […] The starch solution was prepared daily, according to the protocol recommended by Brodkorb et al. with some modifications.[37],[38]
The starch suspension in 0.1 M phosphate buffer/0.04 M NaCl was heated for 5 min under vigorous stirring. After cooling to room temperature, the solution was diluted to a final mass concentration of 40.5 g/L (equivalent to 250 mM based on the molecular weight of the glucose monomers). The concentration of starch is typically expressed as a percentage by weight (%, w/v) due to the inherent polydispersity of the molecule, which is influenced by the source of the natural starch, the manufacturing process, and the preparation of the sample.[28],[39] However, the calculation of inhibition constants requires the use of molarities.
Control experiments were performed with 12 nM α-amylase in 0.1 M phosphate buffer/0.04 M NaCl placed in the sample cell at 310 K, and various volumes (1–10 μL) of starch solution were recurrently injected up to three times with an injection interval of 1600 s. It was elucidated that the optimal volume for reaching the maximal turnover velocity (vmax) was 5 μL. Prior to measurement, α-amylase was incubated with the flavan-3-ols for 60 min at 277 K to ensure that adsorption equilibrium has been reached. This was compulsory as the time required for the ITC system to reach equilibrium and to start measurement varied considerably (10–25 min). To confirm α-amylase stability, controls without an inhibitor were performed at the beginning and the end of each day.
The release of heat during the conversion of starch was monitored, and calculations were performed using Microsoft Excel software. The detected thermal power is directly proportional to the enzymatic rate (v0) (eq 1 and 2).[40],[41] [drawing 1] 1 [drawing 2] 2
The heat rate (dQ/dt) is obtained as a function of time (t) and provides information about the conversion rate (ν). The reaction enthalpy (ΔRHapp) is calculated by integrating the heat peak over its entire extent and dividing the result by the number of substrate molecules converted by the enzyme (eq 3). The substrate concentration at time t ([S]t) is calculated according to eq 4. [drawing 3] 3 [drawing 4] 4
The Michaelis–Menten constant (Km) is defined as the substrate concentration at the time (t0.5) when the reaction rate reaches half-maximum (vmax) (eq 5). [drawing 5] 5
Thus, the thermogram provides all information to calculate inhibition constants. While competitive inhibition (Kic, eq 6) is based on the formation of an enzyme–inhibitor complex (EI), the uncompetitive inhibition (Kiu, eq 7) refers to the binding of a ternary enzyme–substrate–inhibitor complex (ESI). [drawing 6] 6 [drawing 7] 7
The maximal conversion rate vmax and the Michaelis–Menten constant Km are calculated from the control experiments in the absence of an inhibitor. In the presence of an inhibitor [I], the apparent values of [drawing 8] and [drawing 9] have been determined.
The inhibitor concentration that is required to reduce the conversion rate to 50% (IC50) depends on the substrate concentration [S] and is calculated according to the Cheng–Prussoff equation (eq 8).[42] [drawing 10] 8

[2] = target: T1, porcine pancreatic α-amylase; test: Saturation transfer difference (STD)-NMR interaction study; format: binding; conditions: for saturation protein–ligand aliph., corrected by a blank / saturation protein–ligand arom., corrected by a blank / saturation aliph. / saturation arom.: 10 μM α-amylase, 1 mM ligand, 298 K; for saturation protein–ligand arom., corrected by a blank: catechol ring protons; for saturation aliph. / saturation arom.: head prints 'blank', values are protein–ligand not corrected by a blank; for ratio aliph.: share of aliphatic proton saturation; for ratio arom.: share of aromatic proton saturation
Text: STD-NMR parameters were optimized based on the Bruker standard pulse sequence stddiffgp19.3 using a protein and ligand blank sample. The irradiation frequency (FQ2), saturation time (D20), saturation pulse selectivity (SPW9), and power of the saturation pulse (P42) were varied to achieve maximum selective protein saturation (S2). The best saturation of the α-amylase, with 60%, was obtained with FQ2 = 0.5 ppm, D20 = 3 s, SPW9 = 35 dB, and P42 = 50 ms. The pseudo-2D experiment allows simultaneous acquisition of the on-resonance spectrum (with selective protein saturation) and the off-resonance spectrum (without protein saturation). The subtraction of both FIDs yields the STD-NMR spectrum (S3). The off-resonance spectrum serves as a reference spectrum for the determination of ligand saturation by intensity comparison with the STD-NMR spectrum. The protein blank sample contained 10 μM α-amylase, and the ligand blank was acquired with 1.1 mM flavan-3-ol in 0.1 M phosphate buffer/0.04 M NaCl (D2O/H2O, 90/10, v/v). Interaction studies were performed with 10 μM α-amylase and 1 mM (ligand). The software package TopSpin 3.2 of Bruker BioSpin was used for data acquisition and processing.

[3] = 100 μM flavan-3-ol, 310 K, initial injection, control 727 ± 103
[4] = 100 µM flavan-3-ol, inj. 2, read-out: Kic
[5] = 100 µM flavan-3-ol, inj. 2, read-out: Kiu
[6] = 100 µM flavan-3-ol, inj. 3, read-out: Kic
[7] = 100 µM flavan-3-ol, inj. 3, read-out: Kiu
[8] = competitive inhibition constant, 100 μM flavan-3-ol, 310 K, initial injection (inj. 1), read-out: Kic
[9] = relative to control, 100 μM flavan-3-ol, 12 nM α-amylase, starch, 310 K, initial injection (inj. 1)
[10] = relative to control, 100 μM flavan-3-ol, 310 K, initial injection
[11] = uncompetitive inhibition constant, 100 μM flavan-3-ol, 310 K, initial injection (inj. 1), read-out: Kiu
[12] = PC C1 concentrations of ∼105 μM, 310 K

α(Kic/Kiu) ([1]; 100 μM flavan-3-ol, 310 K)	ΔRHapp [1, 3]	vmax ([1]; 100 µM flavan-3-ol, inj. 2)	Ki [1, 4]	Ki [1, 5]	vmax ([1]; 100 µM flavan-3-ol, inj. 3)	Ki [1, 6]	Ki [1, 7]	Ki [1, 8]	vmax [1, 9]	(dQ/dt)max [1, 10]	saturation protein–ligand aliph., corrected by a blank [2]	saturation protein–ligand arom., corrected by a blank [2]	saturation aliph. [2]	saturation arom. [2]	ratio aliph. [2]	ratio arom. [2]	Structure (SMILES)	IC50 [1]	Ki [1, 11]	other results
0.7 ± 0.2	0.156 ± 0.0229 kcal/mol	65±8%	216 ± 65 µM	208 ± 78 µM	70±1%	539 ± 86 µM	240 ± 14 µM	155 ± 79 µM	66 ± 9%	66 ± 14%	11%	14%	11%	14%	44	56	Oc1cc(O)c2c(c1)O[C@H](c1ccc(O)c(O)c1)[C@H](O)[C@H]2c1c(O)cc(O)c2c1O[C@H](c1ccc(O)c(O)c1)[C@@H](O)C2 [PC B1, procyanidin B1]			
0.8 ± 0.4	0.162 ± 0.0335 kcal/mol	78±5%	447 ± 151 µM	403 ± 134 µM	79±2%	458 ± 152 µM	399 ± 54 µM	356 ± 209 µM	79 ± 6%	80 ± 13%	3%	11%	5%	13%	21	79	Oc1cc(O)c2c(c1)O[C@H](c1ccc(O)c(O)c1)[C@@H](O)C2 [CAT, (+)-Catechin]	431 ± 217 µM	431 ± 217 µM	
1.0 ± 0.1	0.205 ± 0.00789 kcal/mol	62±6%	188 ± 34 µM	195 ± 57 µM	61±7%	202 ± 73 µM	165 ± 49 µM		62 ± 4%	56 ± 4%	6%	9%	6%	9%	40	60	Oc1cc(O)c2c(c1)O[C@H](c1ccc(O)c(O)c1)[C@H](O)[C@H]2c1c(O)cc(O)c2c1O[C@H](c1ccc(O)c(O)c1)[C@H](O)C2 [PC B2, procyanidin B2]			

Structure (SMILES)	α(Kic/Kiu) ([1]; 100 μM flavan-3-ol, 310 K)	ΔRHapp [1, 3]	vmax ([1]; 100 µM flavan-3-ol, inj. 2)	Ki [1, 4]	Ki [1, 5]	vmax ([1]; 100 µM flavan-3-ol, inj. 3)	Ki [1, 6]	Ki [1, 7]	Ki [1, 8]	vmax [1, 9]	(dQ/dt)max [1, 10]	saturation protein–ligand aliph., corrected by a blank [2]	saturation protein–ligand arom., corrected by a blank [2]	saturation aliph. [2]	saturation arom. [2]	ratio aliph. [2]	ratio arom. [2]	IC50 [1]	Ki [1, 11]	other results
Oc1cc(O)c2c(c1)O[C@H](c1ccc(O)c(O)c1)[C@H](O)C2 [EC, (−)-Epicatechin]	0.7 ± 0.1	0.195 ± 0.0127 kcal/mol	77±5%	305 ± 162 µM	389 ± 41 µM	76±3%	291 ± 80 µM	330 ± 52 µM		78 ± 4%	82 ± 8%	6%	21%	6%	21%	21	79			
Oc1cc(O)c2c(c1)O[C@H](c1ccc(O)c(O)c1)[C@H](O)[C@H]2c1c(O)cc(O)c2c1O[C@H](c1ccc(O)c(O)c1)[C@H](O)[C@H]2c1c(O)cc(O)c2c1O[C@H](c1ccc(O)c(O)c1)[C@H](O)C2 [PC C1, procyanidin C1]	0.9 ± 0.1	0.143 ± 0.00789 kcal/mol	50±5%	143 ± 56 µM	102 ± 19 µM	59±2%	395 ± 78 µM	145 ± 14 µM		50 ± 4%	44 ± 4%	7%	11%	7%	11%	39	61	103 ± 16 µM	103 ± 16 µM	reduction in α-amylase activity ([1]; 100 μM PC C1): 50%; (dQ/dt)max [1, 12]: 23 ± 0%; ΔRHapp [1, 12]: 0.0406 ± 0.01 kcal/mol; vmax ([1]; PC C1 concentrations of ∼105 μM, 310 K, value printed in brackets): (98 ± 21) %; observation in the STD-NMR sample with α-amylase [2]: visible precipitation; PC C1 concentration in solution after precipitation ([2]; after STD experiment, 1 mM PC C1, 10 μM α-amylase): 0.35 mM; decrease of PC C1 in solution after precipitation ([2]; integrals of aromatic protons, off-resonance spectrum vs pure ligand blank, 1 mM PC C1, 10 μM α-amylase): roughly 65%
